Like-named read-outs stand apart in the source and are kept apart here.
Assays:
motility of mice = test: Test 2: increase of motility of mice (photocell crossings); format: in vivo, Male NMRI mice; conditions: for ED50: Mus musculus, po, lowest ED50 determined at a 20 min interval during the 360 min test period, drugs administered orally
Description: The compounds were also tested for their ability to increase the motility of mice following intravenous administration using the method outlined below.
Male NMRI mice are used (20±2 g). The animals are housed 20-30 per cage under constant temperature (20°±1°) and relative humidity (40-60%). The animals are brought into the experimental room in the afternoon, the day before they undergo testing.
The experimentally-naive mice are acclimatized by being placed in a plexiglass box (WLH: 20×20×38 cm), four per box, for a 120 min period, and then treated with the test compound whereafter they are replaced in the plexiglass box.
The plexiglass box is equipped with a frame of photocells (spaced equidistantly) which are situated so as to detect locomotor behaviour of the animals (1 cm above the floor). The photocell chamber is housed in an sound-insulated, dimly-lit, ventilated chest. As a measure of exploratory behaviour, the number of photocell crossings in a 360 min period is detected using a minicomputer. Testing is made between 7:00 and 17.00 h.
Drugs are administered orally simultaneously with start of testing; N=4/dose; 4-5 doses of test drug is given in a volume of 10 ml/kg.
Computer programmed log-probit methods are used to generate an ED50 in mg/kg using as minimum the control result, and as maximum values are used 7700 (this latter value has been experimentally found as the maximum motility counts after d-amphetamine in a 20 min period).
The test result is the lowest ED50 value determined at a 20 min interval during the 360 min test period.

DA-uptake complex = target: T1, DA-uptake complex (Rattus norvegicus, UniProt P23977); test: Test 1: inhibition of 3H-GBR 12935 binding to the DA-uptake complex in a striatal membrane preparation
T1 construct: in a striatal membrane preparation; from tissue; host or cells: striatal membranes
Description: The compounds were tested for their ability to inhibit the binding of 3H-GBR 12935 to the DA-uptake complex in a striatal membrane preparation following the method described by Andersen (Eur. J. Pharmacol. 166: 493-504, 1989).

T1 sequence (P23977 whole entry, one chain of several): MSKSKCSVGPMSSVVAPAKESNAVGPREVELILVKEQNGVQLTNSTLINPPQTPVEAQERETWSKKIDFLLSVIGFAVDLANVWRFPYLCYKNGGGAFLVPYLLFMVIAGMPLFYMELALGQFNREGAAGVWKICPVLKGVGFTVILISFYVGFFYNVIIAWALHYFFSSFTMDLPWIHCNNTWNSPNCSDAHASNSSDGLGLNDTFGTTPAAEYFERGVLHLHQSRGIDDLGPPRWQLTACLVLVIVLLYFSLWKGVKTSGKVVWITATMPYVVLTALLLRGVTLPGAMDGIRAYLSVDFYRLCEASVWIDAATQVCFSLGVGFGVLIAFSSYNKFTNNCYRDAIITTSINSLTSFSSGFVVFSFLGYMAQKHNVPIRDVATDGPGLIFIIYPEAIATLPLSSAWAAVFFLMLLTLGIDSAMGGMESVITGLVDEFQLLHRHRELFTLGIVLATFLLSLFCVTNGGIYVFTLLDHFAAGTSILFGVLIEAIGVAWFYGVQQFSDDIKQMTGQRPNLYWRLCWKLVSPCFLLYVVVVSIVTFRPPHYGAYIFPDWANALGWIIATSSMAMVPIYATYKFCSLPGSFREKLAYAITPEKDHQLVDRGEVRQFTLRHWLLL

Structure (SMILES) | ED50 (motility of mice) [mg/kg] | IC50 (DA-uptake complex; striatal membrane preparation, method of Andersen 1989, read-out: Test 1 (inhibition of 3H-GBR 12935 binding)) [nM] | IC50 (DA-uptake complex) [nM] | maximum motility counts (motility of mice; in a 20 min period, used as maximum for the log-probit ED50)
Cc1ccsc1C(OCCN1CCN(CCCc2ccccc2)CC1)c1ccc(F)cc1 (stereo not shown) [Example 1] | 30 | 9 |  | 
Fc1ccc(C(OCCN2CCN(CC=Cc3ccco3)CC2)c2cccs2)cc1 (stereo not shown) [Example 2, 1-[2-((4-fluorophenyl)-(2-thienyl)methoxy)ethyl]-4-[3-(2-furyl)-2-propenyl]piperazine] | 17.4 |  | 4.7 | 
Fc1ccc(C(OCCN2CCN(CCCc3ccccc3)CC2)c2ccsc2)cc1 (stereo not shown) [Example 3, 1-[2-((4-fluorophenyl)-(3-thienyl)methoxy)ethyl]-4-(3-phenylpropyl)piperazine] | 32 |  | 3.7 | 
C[C@H](N)Cc1ccccc1 [d-amphetamine, reference compound] |  |  |  | 7700

Reference: patent US5177077A, “1,4-disubstituted piperazines” (Novo Nordisk A/S, priority 1990, dated 1993)
